Values quoted from earlier work in patent US10945947B2, “Formulations for intravenous administration” (GLAXOSMITHKLINE INTELLECTUAL PROPERTY (NO.2) LIMITED, priority 2015, dated 2021).
Where a name gives a salt, the structure may show the parent alone.

Settings: at a higher pH, after oral administration

## Cc1c(F)cccc1NC(=O)Nc1ccc(Cl)c(S(=O)(=O)[C@H]2CCCNC2)c1O [hydrobromide salt of danirixin]
  solubility and dissolution profiles compared to the free base: improved solubility and dissolution profiles
